HELM strings list units from the 5' end as sugar, base in round brackets, then linkage (d deoxyribose, r ribose, m 2'-O-methyl, p phosphodiester). Strings are as the collection lists them; they lack the last nucleoside at the 3' end of the tested compound. [moe] = 2'-O-(2-methoxyethyl) (MOE); [sp] = phosphorothioate linkage; [m5C] = 5-methylcytosine
Target: UBE3A-ATS
Experiment: mouse, dose not given
Conditions: ASO

“RNA1{[moe]([m5C])[sp].[moe](T)p.[moe](G)p.[moe]([m5C])p.[moe](T)p.d([m5C])[sp].d(A)[sp].d(G)[sp].d(T)[sp].d(T)[sp].d(A)[sp].d(G)[sp].d(G)[sp].d(T)[sp].d(T)[sp].[moe](A)p.[moe](G)p.[moe](T)[sp].[moe](G)}$$$$ (last 3' nucleoside missing)” was tested, and the 3 h FOB score was 3.3 score 0-7.
Substance “RNA1{[moe]([m5C])[sp].[moe](T)p.[moe](G)p.[moe]([m5C])p.d(T)[sp].d(T)[sp].d([m5C])[sp].d(A)[sp].d([m5C])[sp].d([m5C])[sp].d(A)[sp].d(T)[sp].d(T)[sp].d(T)[sp].[moe](T)p.[moe](G)p.[moe](A)p.[moe]([m5C])[sp].[moe]([m5C])}$$$$ (last 3' nucleoside missing)” has a 3 h FOB score of 0 score 0-7.
“RNA1{[moe]([m5C])[sp].[moe](T)p.[moe](G)p.[moe]([m5C])p.d(T)[sp].d([m5C])[sp].d(A)[sp].d(G)[sp].d(T)[sp].d(T)[sp].d(A)[sp].d(G)[sp].d(G)[sp].d(T)[sp].[moe](T)p.[moe](A)p.[moe](G)p.[moe](T)[sp].[moe](G)}$$$$ (last 3' nucleoside missing)” gave a 3 h FOB score of 4 score 0-7.
Work on “RNA1{[moe]([m5C])[sp].[moe](T)p.[moe](T)p.[moe](A)p.[moe](A)p.d(A)[sp].d(T)[sp].d(A)[sp].d(G)[sp].d(T)[sp].d(A)[sp].d(G)[sp].d(G)[sp].d(A)[sp].d(A)[sp].[moe](A)p.[moe](G)p.[moe]([m5C])[sp].[moe]([m5C])}$$$$ (last 3' nucleoside missing)” yielded a 3 h FOB score of 4.8 score 0-7.
Substance “RNA1{[moe]([m5C])[sp].[moe](T)p.[moe](T)p.[moe](A)p.[moe](G)p.d(A)[sp].d(T)[sp].d(G)[sp].d(T)[sp].d(G)[sp].d(T)[sp].d(T)[sp].d(T)[sp].d(A)[sp].d(T)[sp].[moe]([m5C])p.[moe]([m5C])p.[moe](A)[sp].[moe](A)}$$$$ (last 3' nucleoside missing)” has a 3 h FOB score of 1.2 score 0-7.
“RNA1{[moe]([m5C])[sp].[moe](T)p.[moe](T)p.[moe](A)p.[moe](G)p.d(G)[sp].d([m5C])[sp].d(A)[sp].d(A)[sp].d(T)[sp].d(G)[sp].d(G)[sp].d(A)[sp].d([m5C])[sp].d(T)[sp].[moe](T)p.[moe](A)p.[moe](G)[sp].[moe](T)}$$$$ (last 3' nucleoside missing)” gave a 3 h FOB score of 1 score 0-7.
With “RNA1{[moe]([m5C])[sp].[moe](T)p.[moe](T)p.[moe](A)p.[moe](T)p.d(G)[sp].d(T)[sp].d(A)[sp].d(G)[sp].d([m5C])[sp].d(T)[sp].d([m5C])[sp].d(A)[sp].d(G)[sp].d([m5C])[sp].[moe](T)p.[moe]([m5C])p.[moe](A)[sp].[moe](A)}$$$$ (last 3' nucleoside missing)” the 3 h FOB score was 2 score 0-7.
Work on “RNA1{[moe]([m5C])[sp].[moe](T)p.[moe](T)p.[moe](G)p.[moe](A)p.d(T)[sp].d(G)[sp].d(G)[sp].d([m5C])[sp].d(T)[sp].d(G)[sp].d(T)[sp].d(A)[sp].d(G)[sp].d([m5C])[sp].[moe](T)p.[moe](T)p.[moe](G)[sp].[moe](G)}$$$$ (last 3' nucleoside missing)” yielded a 3 h FOB score of 5 score 0-7.
“RNA1{[moe]([m5C])[sp].[moe](T)p.[moe](T)p.[moe](T)p.[moe](A)p.d(G)[sp].d(T)[sp].d(A)[sp].d(T)[sp].d(G)[sp].d(T)[sp].d([m5C])[sp].d(G)[sp].d(A)[sp].d(G)[sp].[moe](A)p.[moe](A)p.[moe]([m5C])[sp].[moe](T)}$$$$ (last 3' nucleoside missing)” showed a 3 h FOB score of 5 score 0-7.
Substance “RNA1{[moe]([m5C])[sp].[moe](T)p.[moe](T)p.[moe](T)p.[moe](A)p.d(T)[sp].d(A)[sp].d([m5C])[sp].d(T)[sp].d(T)[sp].d(T)[sp].d(A)[sp].d([m5C])[sp].d([m5C])[sp].d([m5C])[sp].[moe](A)p.[moe](A)p.[moe]([m5C])[sp].[moe](T)}$$$$ (last 3' nucleoside missing)” has a 3 h FOB score of 0 score 0-7.
Substance “RNA1{[moe]([m5C])[sp].[moe](T)p.[moe](T)p.[moe](T)p.[moe]([m5C])p.d(A)[sp].d(T)[sp].d([m5C])[sp].d(A)[sp].d(G)[sp].d(T)[sp].d(T)[sp].d(A)[sp].d(G)[sp].d(T)[sp].[moe]([m5C])p.[moe](A)p.[moe](G)[sp].[moe](G)}$$$$ (last 3' nucleoside missing)” has a 3 h FOB score of 3.5 score 0-7.
Substance “RNA1{[moe]([m5C])[sp].[moe](T)p.[moe](T)p.[moe]([m5C])[sp].d(A)[sp].d([m5C])[sp].d([m5C])[sp].d(A)[sp].d(T)[sp].d(T)[sp].d(T)[sp].d(T)[sp].[moe](G)p.[moe](A)p.[moe]([m5C])p.[moe]([m5C])[sp].[moe](T)}$$$$ (last 3' nucleoside missing)” has a 3 h FOB score of 0 score 0-7.
“RNA1{[moe]([m5C])[sp].[moe](T)p.[moe](T)p.[moe]([m5C])p.[moe](A)p.[moe]([m5C])p.d([m5C])[sp].d(A)[sp].d(T)[sp].d(T)[sp].d(T)[sp].d(T)[sp].d(G)[sp].d(A)[sp].d([m5C])[sp].d([m5C])[sp].[moe](T)p.[moe](T)[sp].[moe]([m5C])}$$$$ (last 3' nucleoside missing)” gave a 3 h FOB score of 1 score 0-7.
In the case of “RNA1{[moe]([m5C])[sp].[moe](T)p.[moe](T)p.[moe]([m5C])p.[moe](A)p.d(A)[sp].d([m5C])[sp].d(T)[sp].d(A)[sp].d(A)[sp].d([m5C])[sp].d(A)[sp].d(G)[sp].d(T)[sp].d(A)[sp].[moe](T)p.[moe]([m5C])p.[moe](T)[sp].[moe](T)}$$$$ (last 3' nucleoside missing)”, the 3 h FOB score is reported as 0 score 0-7.
In the case of “RNA1{[moe]([m5C])[sp].[moe](T)p.[moe](T)p.[moe]([m5C])p.[moe](A)p.d(T)[sp].d(T)[sp].d(A)[sp].d(T)[sp].d(T)[sp].d([m5C])[sp].d(T)[sp].d([m5C])[sp].d(T)[sp].d(A)[sp].[moe](G)p.[moe](T)p.[moe](G)[sp].[moe]([m5C])}$$$$ (last 3' nucleoside missing)”, the 3 h FOB score is reported as 0 score 0-7.
Substance “RNA1{[moe]([m5C])[sp].[moe](T)p.[moe](T)p.[moe]([m5C])p.[moe](A)p.d([m5C])[sp].d([m5C])[sp].d(A)[sp].d(T)[sp].d(T)[sp].d(T)[sp].d(T)[sp].d(G)[sp].d(A)[sp].d([m5C])[sp].[moe]([m5C])p.[moe](T)p.[moe](T)[sp].[moe]([m5C])}$$$$ (last 3' nucleoside missing)” has a 3 h FOB score of 1 score 0-7.
“RNA1{[moe]([m5C])[sp].[moe](T)p.[moe](T)p.[moe]([m5C])p.d(A)[sp].d([m5C])[sp].d([m5C])[sp].d(A)[sp].d(T)[sp].d(T)[sp].d(T)[sp].d(T)[sp].d(G)[sp].d(A)[sp].[moe]([m5C])p.[moe]([m5C])p.[moe](T)p.[moe](T)[sp].[moe]([m5C])}$$$$ (last 3' nucleoside missing)” gave a 3 h FOB score of 1 score 0-7.
Substance “RNA1{[moe]([m5C])[sp].[moe](T)p.[moe]([m5C])p.[moe](A)[sp].d(G)[sp].d(T)[sp].d(T)[sp].d(A)[sp].d(G)[sp].d(G)[sp].d(T)[sp].d(T)[sp].[moe](A)p.[moe](G)p.[moe](T)p.[moe](G)[sp].[moe]([m5C])}$$$$ (last 3' nucleoside missing)” has a 3 h FOB score of 5.3 score 0-7.
“RNA1{[moe]([m5C])[sp].[moe](T)p.[moe]([m5C])p.[moe](A)p.[moe](G)[sp].d(T)[sp].d(T)[sp].d(A)[sp].d(G)[sp].d(G)[sp].d(T)[sp].d(T)[sp].d(A)[sp].[moe](G)p.[moe](T)p.[moe](G)[sp].[moe]([m5C])}$$$$ (last 3' nucleoside missing)” showed a 3 h FOB score of 1.3 score 0-7.
With “RNA1{[moe]([m5C])[sp].[moe](T)p.[moe]([m5C])p.[moe](A)p.[moe](G)p.[moe](T)[sp].d(T)[sp].d(A)[sp].d(G)[sp].d(G)[sp].d(T)[sp].d(T)[sp].d(A)[sp].d(G)[sp].[moe](T)p.[moe](G)[sp].[moe]([m5C])}$$$$ (last 3' nucleoside missing)” the 3 h FOB score was 6.3 score 0-7.
Work on “RNA1{[moe]([m5C])[sp].[moe](T)p.[moe]([m5C])p.[moe](A)p.[moe](G)p.[moe](T)p.d(T)[sp].d(A)[sp].d(G)[sp].d(G)[sp].d(T)[sp].d(T)[sp].d(A)[sp].d(G)[sp].d(T)[sp].d(G)[sp].[moe]([m5C])p.[moe](A)[sp].[moe]([m5C])}$$$$ (last 3' nucleoside missing)” yielded a 3 h FOB score of 4 score 0-7.
For “RNA1{[moe]([m5C])[sp].[moe](T)p.[moe]([m5C])p.[moe](A)p.[moe](G)p.d(T)[sp].d(T)[sp].d(A)[sp].d(G)[sp].d(G)[sp].d(T)[sp].d(T)[sp].d(A)[sp].d(G)[sp].d(T)[sp].[moe](G)p.[moe]([m5C])p.[moe](A)[sp].[moe]([m5C])}$$$$ (last 3' nucleoside missing)”, the 3 h FOB score was 6 score 0-7.
“RNA1{[moe]([m5C])[sp].[moe](T)p.[moe]([m5C])p.[moe](A)p.d(G)[sp].d(T)[sp].d(T)[sp].d(A)[sp].d(G)[sp].d(G)[sp].d(T)[sp].d(T)[sp].d(A)[sp].d(G)[sp].[moe](T)p.[moe](G)p.[moe]([m5C])p.[moe](A)[sp].[moe]([m5C])}$$$$ (last 3' nucleoside missing)” gave a 3 h FOB score of 4 score 0-7.
In the case of “RNA1{[moe]([m5C])[sp].[moe](T)p.[moe]([m5C])p.[moe]([m5C])p.[moe](A)p.d(G)[sp].d(T)[sp].d(T)[sp].d(T)[sp].d(T)[sp].d([m5C])[sp].d(G)[sp].d([m5C])[sp].d([m5C])[sp].d([m5C])[sp].[moe](G)p.[moe](T)p.[moe](T)[sp].[moe](A)}$$$$ (last 3' nucleoside missing)”, the 3 h FOB score is reported as 3.3 score 0-7.
For “RNA1{[moe]([m5C])[sp].[moe]([m5C])p.[moe](A)p.[moe](A)p.[moe](T)p.d(A)[sp].d(T)[sp].d(T)[sp].d(T)[sp].d(T)[sp].d(G)[sp].d(A)[sp].d([m5C])[sp].d(T)[sp].d(A)[sp].[moe](G)p.[moe](T)p.[moe](T)[sp].[moe]([m5C])}$$$$ (last 3' nucleoside missing)”, the 3 h FOB score was 4.2 score 0-7.
“RNA1{[moe]([m5C])[sp].[moe]([m5C])p.[moe](A)p.[moe](A)p.[moe]([m5C])p.d(T)[sp].d(T)[sp].d([m5C])[sp].d(A)[sp].d(T)[sp].d([m5C])[sp].d(A)[sp].d(A)[sp].d(T)[sp].d(A)[sp].[moe](T)p.[moe](T)p.[moe](T)[sp].[moe]([m5C])}$$$$ (last 3' nucleoside missing)” gave a 3 h FOB score of 0 score 0-7.
